Values of other authors as cited in PMC9959726 (Molecules, 2023).
Like-named read-outs stand apart in the source and are kept apart here.

What was measured:
BEAS-2B and HepG2 cells = conditions: PM2.5-induced BEAS-2B and HepG2 cells
CYP-1A2 = tested on: CYP-1A2; design: method as in PMID 34377680; conditions: for Effect on CYP 1A2: from P. anisum root
MCF-7 cells = tested on: MCF-7 cells; design: method as in PMID 29959054; conditions: from P. haussknechtii fruit; read-out: Cytotoxicity against MCF-7 cell, IC50
[1] = from P. thellungiana
DNA = conditions: compounds obtained from P. saxifraga
[2] = for antioxidant activity: compounds obtained from P. saxifraga; for antioxidant property: from P. brachycarpa
α-glycosidase = conditions: for α-glucosidase inhibitory: from P. candolleana; for α-glucosidase inhibition: from P. anthriscoides
BChE = conditions: from P. anthriscoides
AChE = conditions: from P. anthriscoides
α-amylase = conditions: from P. anthriscoides
pestiferous pests = tested on: pestiferous pests; design: method as in PMID 29029251, PMID 29029346
[3] = design: method as in PMID 30704124

CC=Cc1ccc(OC)cc1 (stereo in doubt) [compound 40, cis-anethole]
reduction of IL-8 level (BEAS-2B and HepG2 cells): 87%

COc1c2ccoc2cc2oc(=O)ccc12 [Bergapten (256)]
Effect on CYP 1A2 (CYP-1A2): Inhibitory effects on CYP 1A2

CC(C)=CC(C)(O)C1OC(=O)Cc2oc(C)cc(=O)c21 (stereo not drawn) [Pimpinelol (205)]
IC50 (MCF-7 cells): 1060 nM

CCOC(c1cc(OC)ccc1O)C(C)O (stereo not drawn) [compound 1, 2-(1′-ethoxy-2′-hydroxy)propyl-4-methoxyphenol]
antihypertensive activity [1]: significant antihypertensive activity

CCOC(c1cc(OC)ccc1OC(=O)C(C)CC)C(C)O (stereo not drawn) [compound 2, 2-(1′-ethoxy-2′-hydroxy)propyl-4-methoxyphenyl-2-methyl-butyrate]
antihypertensive activity [1]: significant antihypertensive activity

COC(=O)/C=C/c1ccccc1O [compound 48, methyl-O-coumarate]
DNA protection potential (DNA): DNA protection potential | antioxidant activity [2]: antioxidant activity

CCC(=O)c1ccc(OC)cc1O [compound 49, 1-(2-hydroxy-4-methoxyphenyl)propan1-one]
DNA protection potential (DNA): DNA protection potential | antioxidant activity [2]: antioxidant activity

COc1ccc(C=CC=O)cc1 [compound 50, 4-methoxycinnamaldehyde]
DNA protection potential (DNA): DNA protection potential | antioxidant activity [2]: antioxidant activity

C=CCc1cc2c(c(OC)c1OC)OCO2 [compound 51, dillapiole]
DNA protection potential (DNA): DNA protection potential | antioxidant activity [2]: antioxidant activity

COc1c2ccoc2cc2oc(=O)ccc12 [compound 256, bergapten]
CYP-1A2 inhibition (CYP-1A2): inhibitors

COc1c2ccoc2c(OC)c2oc(=O)ccc12 [compound 274, isopimpinellin]
CYP-1A2 inhibition (CYP-1A2): inhibitors

CCC(C=CC(C)C1CCC2C3CC=C4CC(OC(C)=O)CCC4(C)C3CCC12C)C(C)C (stereo not drawn) [compound 294, Stigmasta-5, 22-dien-3-olacetate]
antioxidant ([2]; from P. candolleana): effective antioxidant | α-glucosidase inhibitory (α-glycosidase): α-glucosidase inhibitory

CC[C@H](CC[C@@H](C)[C@H]1CC[C@H]2[C@@H]3CC=C4C[C@@H](O[C@@H]5O[C@H](CO)[C@@H](O)[C@H](O)[C@H]5O)CC[C@]4(C)[C@H]3CC[C@]12C)C(C)C [compound 295, daucosterol]
antioxidant ([2]; from P. candolleana): effective antioxidant | α-glucosidase inhibitory (α-glycosidase): α-glucosidase inhibitory

CC[C@H](/C=C/[C@@H](C)[C@H]1CC[C@H]2[C@@H]3CC=C4C[C@@H](O)CC[C@]4(C)[C@H]3CC[C@]12C)C(C)C [compound 296, stigmasterol]
antioxidant ([2]; from P. candolleana): effective antioxidant | α-glucosidase inhibitory (α-glycosidase): α-glucosidase inhibitory

CC(=O)C(C)CCC(C)C1CCC2(C)C3CCC4C(C)(C)CCCC4(C)C3CCC12C (stereo not drawn) [compound 297, 24ζ-Methyl-5R-lanosta-25-one]
antioxidant property [2]: antioxidant property

CC(=O)[C@H]1CC[C@H]2[C@@H]3CC=C4C[C@@H](O)CC[C@]4(C)[C@H]3CC[C@]12C [compound 298, pregnenolone]
antioxidant property [2]: antioxidant property

O=C(O)C(O)Cc1ccccc1 (stereo not drawn) [compound 337, 3-phenyllactic acid]
BChE inhibition (BChE): inhibiting | AChE inhibition (AChE): inhibiting | α-amylase inhibition (α-amylase): inhibiting | antioxidant ([2]; from P. anthriscoides): proven antioxidant | α-glucosidase inhibition (α-glycosidase): inhibiting

O=C(O)CC(O)(CC(=O)O)C(=O)O [compound 338, citric acid]
BChE inhibition (BChE): inhibiting | AChE inhibition (AChE): inhibiting | α-amylase inhibition (α-amylase): inhibiting | antioxidant ([2]; from P. anthriscoides): proven antioxidant | α-glucosidase inhibition (α-glycosidase): inhibiting

COc1c2ccoc2c(OC)c2oc(=O)ccc12 [isopimpinellin (274)]
Effect on CYP 1A2 (CYP-1A2): Inhibitory effects on CYP 1A2

COc1c2occc2cc2ccc(=O)oc12 [methoxsalen (275)]
Effect on CYP 1A2 (CYP-1A2): Inhibitory effects on CYP 1A2

p-anisaldehyde [compound 47]
DNA protection potential (DNA): DNA protection potential | antioxidant activity [2]: antioxidant activity | reproduction of pests (pestiferous pests): inhibiting the reproduction of pests

umbelliprenin [compound 276]
skin whitening [3]: potential skin-whitening agent
